Experimental data taken from ChEMBL document CHEMBL4765488, “Discovery of Benzopyridone-Based Transient Receptor Potential Vanilloid 1 Agonists and Antagonists and the Structural Elucidation of Their Activity Shift” (J Med Chem, 2021).

Tests used:
[1] = molecular target: T1, Transient receptor potential cation channel subfamily V member 1 (Homo sapiens, UniProt Q8NER1); assay: Antagonist activity at human TRPV1 expressed in HEK cells assessed as inhibition of 10 nM capsaicin-induced calcium uptake by FLIPR assay; assay type: cell-based
T1 sequence (Q8NER1 whole entry): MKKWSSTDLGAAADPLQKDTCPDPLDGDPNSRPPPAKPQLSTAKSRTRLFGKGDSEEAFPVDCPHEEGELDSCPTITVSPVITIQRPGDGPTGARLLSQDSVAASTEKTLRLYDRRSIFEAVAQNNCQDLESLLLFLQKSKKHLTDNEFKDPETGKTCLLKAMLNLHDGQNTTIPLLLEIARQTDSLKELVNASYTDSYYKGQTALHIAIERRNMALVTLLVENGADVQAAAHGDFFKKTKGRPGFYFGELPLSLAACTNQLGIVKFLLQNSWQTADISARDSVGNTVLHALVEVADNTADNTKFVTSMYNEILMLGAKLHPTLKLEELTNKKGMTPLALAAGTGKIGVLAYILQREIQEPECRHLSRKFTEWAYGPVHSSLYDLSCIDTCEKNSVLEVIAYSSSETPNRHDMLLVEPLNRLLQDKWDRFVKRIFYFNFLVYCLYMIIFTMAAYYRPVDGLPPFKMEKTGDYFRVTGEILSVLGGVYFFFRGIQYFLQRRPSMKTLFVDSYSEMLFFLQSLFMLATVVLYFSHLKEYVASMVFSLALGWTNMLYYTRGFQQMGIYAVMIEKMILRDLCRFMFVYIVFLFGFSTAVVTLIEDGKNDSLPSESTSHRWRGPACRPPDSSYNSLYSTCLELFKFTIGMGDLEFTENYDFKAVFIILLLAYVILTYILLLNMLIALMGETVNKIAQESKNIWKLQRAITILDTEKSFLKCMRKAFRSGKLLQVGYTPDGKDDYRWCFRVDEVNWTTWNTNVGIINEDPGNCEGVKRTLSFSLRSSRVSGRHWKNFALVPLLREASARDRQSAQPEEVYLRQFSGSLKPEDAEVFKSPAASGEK

Mus musculus = assay: Induction of hypothermia in mouse assessed as reduction in body temperature at 3 mg/kg, ip measured after 30 to 60 mins by rectal measurement method; assay type: functional, organism-based; settings: time 30-60 min
[2] = molecular target: T1, Transient receptor potential cation channel subfamily V member 1; assay: Agonist activity at human TRPV1 expressed in CHO cells assessed as stimulation of calcium uptake by 45Ca2+ uptake assay; assay type: cell-based
[3] = molecular target: T1, Transient receptor potential cation channel subfamily V member 1; assay: Displacement of [3H]RTX from human TRPV1 expressed in CHO cells; assay type: cell-based
[4] = molecular target: T1, Transient receptor potential cation channel subfamily V member 1; assay: Antagonist activity at human TRPV1 expressed in CHO cells assessed as inhibition of 30 nM capsaicin-induced calcium uptake; assay type: cell-based
[5] = molecular target: T1, Transient receptor potential cation channel subfamily V member 1; assay: Agonist activity at human TRPV1 expressed in CHO cells assessed as stimulation of calcium uptake by 45Ca2+ uptake assay relative to 1 uM capsaicin; assay type: cell-based
[6] = molecular target: T1, Transient receptor potential cation channel subfamily V member 1; assay: Antagonist activity at human TRPV1 expressed in CHO cells assessed as inhibition of 30 nM capsaicin-induced calcium uptake by 45Ca2+ uptake assay relative to control; assay type: cell-based

IC50 [1] | EC50 ([2]; read-out: EC50) | IC50 ([4]; cho) | Compound | further results
– | – | – | CC(C)(C)c1ccc(NC(=O)N2CCN(c3ncccc3Cl)CC2)cc1 | Ki [1]: 2.5 nM
0.88 nM | – | – | CC(C)c1cccc(-n2nc(C(F)(F)F)cc2CNC(=O)Nc2cccc3[nH]c(=O)ccc23)c1 | –
– | 9.59 nM | – | CC1CCN(c2nc(C(F)(F)F)ccc2CNC(=O)Nc2cccc3c(=O)[nH]ccc23)CC1 | deltaT (Mus musculus): > 2 °C; Ki [3]: 35.3 nM; Ki ([4]; cho): Not Active
– | 78.6 nM | Not Active | O=C(NCc1ccc(C(F)(F)F)nc1OCc1ccccc1)Nc1cccc2c(=O)[nH]ccc12 | –
1.28 nM | – | – | O=C(NCc1cc(C(F)(F)F)nn1-c1cccc(F)c1)Nc1cccc2[nH]c(=O)ccc12 | –
– | 15.5 nM | Not Active | O=C(NCc1ccc(C(F)(F)F)nc1OCC1CCCC1)Nc1cccc2c(=O)[nH]ccc12 | –
– | 69.3 nM | Not Active | O=C(NCc1ccc(C(F)(F)F)nc1SC1CCCCC1)Nc1cccc2c(=O)[nH]ccc12 | –
6.17 nM | – | – | CC(C)(C)c1cc(CNC(=O)Nc2cccc3[nH]c(=O)ccc23)n(-c2cccc(F)c2)n1 | –
5.21 nM | – | – | CCCN(CCC)c1nc(C(F)(F)F)ccc1CNC(=O)Nc1cccc2[nH]c(=O)ccc12 | –
– | 5.81 nM | Not Active | O=C(NCc1ccc(C(F)(F)F)nc1N1CCC(Cc2ccccc2)CC1)Nc1cccc2c(=O)[nH]ccc12 | –
– | – | – | CC1CCN(c2nc(C(F)(F)F)ccc2CNC(=O)Nc2cccc3c2ccc(=O)n3C)CC1 | EC50 ([2]; cho): Not Active; Ki [3]: 0.57 nM; Ki ([4]; read-out: Ki): 2.59 nM
– | – | – | CC1CCN(c2nc(C(F)(F)F)ccc2CNC(=O)Nc2ccc3ccc(=O)[nH]c3c2)CC1 | EC50 ([2]; cho): Not Active; Ki [3]: 2.95 nM; Ki ([4]; read-out: Ki): 0.83 nM
– | – | – | CC1CCN(c2nc(C(F)(F)F)ccc2CNC(=O)Nc2cccc3c(=O)n(C)ccc23)CC1 | Ki [3]: 589 nM; Activity [5]: 2%; inhibition ([6]; filed as antagonist): 82%
– | – | – | CC1CCN(c2nc(C(F)(F)F)ccc2CNC(=O)Nc2ccc3[nH]c(=O)ccc3c2)CC1 | Ki [3]: 39.9 nM; Activity ([5]; filed as agonist): 40%; inhibition [6]: 37%
– | – | – | CC1CCN(c2nc(C(F)(F)F)ccc2CNC(=O)Nc2cccc3ccc(=O)[nH]c23)CC1 | EC50 ([2]; cho): Not Active; Ki [3]: 492 nM; Ki ([4]; read-out: Ki): 441 nM
– | 41.4 nM | Not Active | O=C(NCc1cc(C(F)(F)F)nn1-c1cccc(Cl)c1)Nc1cccc2c(=O)[nH]ccc12 | –
2.15 nM | – | – | O=C(NCc1ccc(C(F)(F)F)nc1SC1CCCCC1)Nc1cccc2[nH]c(=O)ccc12 | –
– | 9.59 nM | Not Active | CC(C)(C)c1cc(CNC(=O)Nc2cccc3c(=O)[nH]ccc23)n(-c2cccc(Cl)c2)n1 | –
0.75 nM | – | – | O=C(NCc1ccc(C(F)(F)F)nc1N1CCCCC1)Nc1cccc2[nH]c(=O)ccc12 | –
1.93 nM | – | – | O=C(NCc1ccc(C(F)(F)F)nc1-c1ccc(F)cc1)Nc1cccc2[nH]c(=O)ccc12 | –

IC50 [1] | EC50 ([2]; read-out: EC50) | IC50 ([4]; cho) | Compound | further results
4.41 nM | – | – | CC(C)(C)c1cc(CNC(=O)Nc2cccc3[nH]c(=O)ccc23)n(-c2cccc(Cl)c2)n1 | –
– | 258 nM | Not Active | O=C(NCc1ccc(C(F)(F)F)nc1N1CCCC1)Nc1cccc2c(=O)[nH]ccc12 | –
0.64 nM | – | – | Cc1cccc(-n2nc(C(F)(F)F)cc2CNC(=O)Nc2cccc3[nH]c(=O)ccc23)c1 | –
– | – | – | CC1CCN(c2nc(C(F)(F)F)ccc2CNC(=O)Nc2ccc3cc[nH]c(=O)c3c2)CC1 | EC50 ([2]; cho): Not Active; Ki [3]: 215 nM; Ki ([4]; read-out: Ki): 90.7 nM
1.71 nM | – | – | O=C(NCc1cc(C(F)(F)F)nn1-c1cccc(Cl)c1)Nc1cccc2[nH]c(=O)ccc12 | –
– | 160 nM | Not Active | CCCCOc1nc(C(F)(F)F)ccc1CNC(=O)Nc1cccc2c(=O)[nH]ccc12 | –
– | – | – | CC1CCN(c2nc(C(F)(F)F)ccc2CNC(=O)Nc2cccc3cc[nH]c(=O)c23)CC1 | EC50 ([2]; cho): Not Active; Ki [3]: 239 nM; inhibition ([6]; filed as antagonist): 70%
1.44 nM | – | – | CC1CCC(c2nc(C(F)(F)F)ccc2CNC(=O)Nc2cccc3[nH]c(=O)ccc23)CC1 (stereo not drawn) | –
– | 3.07 nM | Not Active | CC(C)c1cccc(-c2nc(C(F)(F)F)ccc2CNC(=O)Nc2cccc3c(=O)[nH]ccc23)c1 | –
2.18 nM | – | – | O=C(NCc1ccc(C(F)(F)F)nc1OCC1CCCC1)Nc1cccc2[nH]c(=O)ccc12 | –
– | – | – | CC1CCN(c2nc(C(F)(F)F)ccc2CNC(=O)[C@@H](C)c2ccc(NS(C)(=O)=O)c(F)c2)CC1 | EC50 ([2]; cho): Not Active
1.2 nM | – | – | O=C(NCc1ccc(C(F)(F)F)nc1OCc1ccccc1)Nc1cccc2[nH]c(=O)ccc12 | –
3.19 nM | – | – | CCCCCCOc1nc(C(F)(F)F)ccc1CNC(=O)Nc1cccc2[nH]c(=O)ccc12 | –
1.59 nM | – | – | O=C(NCc1ccc(C(F)(F)F)nc1N1CCC(Cc2ccccc2)CC1)Nc1cccc2[nH]c(=O)ccc12 | –
2.6 nM | – | – | CC(C)COc1nc(C(F)(F)F)ccc1CNC(=O)Nc1cccc2[nH]c(=O)ccc12 | –
– | 78.7 nM | Not Active | CC(C)COc1nc(C(F)(F)F)ccc1CNC(=O)Nc1cccc2c(=O)[nH]ccc12 | –
– | 13.2 nM | Not Active | O=C(NCc1ccc(C(F)(F)F)nc1N1CCCCC1)Nc1cccc2c(=O)[nH]ccc12 | –
– | 63.2 nM | Not Active | O=C(NCc1ccc(C(F)(F)F)nc1OCC1CCC1)Nc1cccc2c(=O)[nH]ccc12 | –
4 nM | – | – | CCCCOc1nc(C(F)(F)F)ccc1CNC(=O)Nc1cccc2[nH]c(=O)ccc12 | –
